# According to patent US7244595B2, “Method of maintaining or improving a nitrile hydratase activity” (priority 2003, dated 2007):
# Values joined by “and” are separate entries in the source; they are usually repeats but may differ in a detail not shown here. Equal entries are not always repeated.
# Tests used:
# nitrile hydratase [1] = molecular target: T1, nitrile hydratase (Pseudonocardia thermophila, UniProt Q7SID2+Q7SID3); test: Nitrile hydrating activity (acrylamide formed) of wet microorganism contacted with an oxidizing agent in deoxidized water; format: cell-based, Escherichia coli HB101 (MT-10822 strain); design: expressed in transfected cells; host or cells: Escherichia coli HB101 (transformant MT-10822, FERM BP-5785), IPTG-induced
# Procedure: (§1) In HPLC analysis of a reaction solution in the Examples, ULTRON 80HG (50×8 φmm) was used as an HPLC column, and 10 mM aqueous phosphate solution was used as a developing solution. Acrylamide and acrylonitrile were detected by absorbance at 220 nm to determine their concentrations.
# The resulting microorganism, 0.20 g, was suspended in previously deoxidized pure water in a 100 ml sealable glass container previously sufficiently purged with nitrogen, and potassium ferricyanide was added and suspended as an oxidizing agent at a final concentration shown in Table 1 to give 20.00 g suspension. Separately, an oxidizing agent-free microbial suspension was prepared in the same manner. The microbial suspension was kept at 20° C. for 15 minutes under stirring.
# (§2) The reaction was terminated by adding 80 g of 10 mM aqueous phosphoric acid, and then the concentration of acrylamide in the reaction solution was determined by HPLC analysis. Subsequently, the concentration of the microbial suspension based on the dry weight of the microorganism was determined, and then the amount of formed acrylamide per unit dry weight of the microorganism was calculated.
# The amount of acrylamide formed per unit dry weight of the microorganism was determined in the same manner as in Example 3 except that in place of potassium ferricyanide, ammonium persulfate was added and suspended as an oxidizing agent at a concentration shown in Table 1.
# The microbial suspension was kept at 20° C. under stirring. 0 minute, 10 minutes, 2 hours and 24 hours after the stirring was initiated, a small amount of the microbial suspension was collected, and the amount of formed acrylamide per unit dry weight of the microorganism was determined in the same manner as in Example 3.
# Separately, a microbial suspension wherein the oxidizing agent was not added and the pH value was not adjusted was also prepared in the same manner. The microbial suspension was kept at 20° C. for 15 minutes under stirring. The amount of formed acrylamide per unit dry weight of the microorganism was determined in the same manner as in Example 3.
# Separately, a microbial suspension wherein the oxidizing agent was not added was also prepared in the same manner. The amount of formed acrylamide per unit dry weight of the microorganism was determined in the same manner as in Example 3.
# nitrile hydratase [2] = molecular target: T1, nitrile hydratase
# Procedure: as §1
# MT-10822 strain (FERM BP-5785, see JP-A 11-253168) having a nitrile hydratase gene introduced into Escherichia coli HB101, deposited by Mitsui Chemicals, Inc., was used as the nitrile hydratase-containing cell in this example.
# For culture of this microbial strain, 15.0 L medium having the following composition was prepared in a 30 L culture container and sterilized with high-pressure steam at 121° C. for 20 minutes. Ampicillin was added at a final concentration of 50 μg/ml to this medium, and the microbial strain was inoculated via a platinum loop thereto and cultured at 37° C. at 700 rpm for 20 hours. […]
# The reaction was terminated by adding 80 g of 10 mM aqueous phosphoric acid, and then the concentration of acrylamide in the reaction solution was determined by HPLC analysis. Subsequently, the concentration of the microbial suspension was determined on the basis of the dry weight of the microorganism, and then the amount of formed acrylamide per unit dry weight of the microorganism was calculated. […]
# nitrile hydratase [3] = molecular target: T1, nitrile hydratase; remark: listed apart in the source
# Procedure: as §1, §2
# A wet microorganism was obtained in the same manner as in Example 3. […] The suspension was kept at 10° C. under stirring, while the air (40 N-ml/min.) was passed through the gaseous phase in the flask. 0, 1, 2, 3, 7 and 19 days after storage, a part of the microbial suspension was removed. […] The amount of formed acrylamide in each of the collected microbial suspensions per unit dry weight of the microorganism was determined in the same manner as in Example 3.
# A wet microorganism was obtained in the same manner as in Example 3. […] The amount of formed acrylamide in each of the collected microbial suspensions per unit dry weight of the microorganism was determined in the same manner as in Example 3.
# T1 sequence (Q7SID2 whole entry): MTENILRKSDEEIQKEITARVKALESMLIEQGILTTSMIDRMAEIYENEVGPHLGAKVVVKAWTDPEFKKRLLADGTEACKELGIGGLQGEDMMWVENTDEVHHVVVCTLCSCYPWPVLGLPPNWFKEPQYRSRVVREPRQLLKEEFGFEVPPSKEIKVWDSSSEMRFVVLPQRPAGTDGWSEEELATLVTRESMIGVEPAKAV
# T1 sequence (Q7SID3 whole entry): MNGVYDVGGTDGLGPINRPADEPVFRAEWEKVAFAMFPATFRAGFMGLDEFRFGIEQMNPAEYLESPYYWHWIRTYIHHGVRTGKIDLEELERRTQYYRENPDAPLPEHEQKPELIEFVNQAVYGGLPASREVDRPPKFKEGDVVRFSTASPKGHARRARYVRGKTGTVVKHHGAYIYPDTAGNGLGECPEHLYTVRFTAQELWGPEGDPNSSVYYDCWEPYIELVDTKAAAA
Structure (SMILES),AMOUNT OF […] (RELATIVE VALUE) (nitrile hydratase [1]) [relative value],nitrile hydrating activity of the nitrile hydratase on contact of the microorganism with the oxidizing agent (in words) (nitrile hydratase [1]),amount of formed acrylamide per unit dry weight of the microorganism (0 hour of storage = 1) (nitrile hydratase [2]),"nitrile hydrating activity of the nitrile hydratase on contact with oxygen, depending on the contact time (in words) (nitrile hydratase [3])"
"OO [HYDROGEN PEROXIDE, hydrogen peroxide]",2.4,improved,–,–
"N.N.O=S(=O)(O)OOS(=O)(=O)O [AMMONIUM PERSULFATE, ammonium persulfate]",1.6,improved,–,–
O=O [oxygen],–,–,1.1 and 1.0,improved depending on the contact time
